A short description of data set [1]: Acute tolerance in mice, single iv dose. To be noted: C57BL/6, mouse, in vivo; male mice; predicted from the 250 mg/kg iv study; read-out: LD50 after single dose. It is filed as in vivo. On the procedure: (§1) This pilot study was conducted to obtain acute information of the dose toxicity of HU-MCA-13 (Compound 13 in Scheme 1) in male mice. Male C57BL/6 mice, were injected intravenously with 0.2 ml of HU-MCA-13 in a dose of 250 mg/kg. Mice were monitored for 4 consecutive weeks for autonomic and neurotoxicity symptoms. The mortality and changes on body weight, clinical signs, gross observation, were monitored up to 30 days after treatment. No mortality was found at this high dose of 250 mg/kg. […] The mice were examined once a week for autonomic symptoms by measuring salivation, urinary delivery, pupillary constriction, heart rate, blood pressure, and hair contraction. […] Occurrences of either flaccid or spastic paralysis of the legs were not observed. […] Furthermore, no mice sudden deaths occurred within 24 hours after the injection or during the 4 weeks of observation. […] Sensory motor tests were scored individually and according to the modified neurologic function severity score (mNSS). The data from each individual test and the total score calculated from individual tests that make up the mNSS were measured. The following assays were used: a. beam balance test—mice were placed on a 1-inch wide beam for 60 seconds. A normal response is balance with steady posture for 60 seconds (a score of 0). Deficits are scored if the rat: grasps the side of the beam (a score of 1), hugs the beam and one limb falls down from the beam (a score of 2), hugs the beam and two limbs fall off the beam (a score of 3), attempts to balance on the beam, but falls off from 60 seconds (a score of 4), attempts to balance on the beam but falls off from […], or falls off with no attempt to balance or hang on the beam in <20 seconds (a score of 6); b. foot fault test—forelimb movement dysfunction, while walking on elevated metal grids, was monitored. The animal was placed on horizontal grids (85.5×26.5×20) cm with a glass enclosure for observation. With each weight bearing step, the forelimb can fall or slip between the metal support bars, an event recorded as a foot fault. The total number of forelimb steps and the total number of foot faults were recorded. The percentage of forelimb foot faults to the total steps that occurred within 2 minutes marks the test results; c. hind limb placing test—This test monitors reposition of hind limbs placed down and away from the table edge. The ability to retrieve and place the hind limbs back onto the table was scored. Immediate and complete limb retrieval was scored 0, delayed (>2 seconds) limb retrieval and/or interspersed flailing was scored 1, and no limb retrieval was scored 2; d. Increasing platform angle to slide test—This test monitors the strength and stability of resistance to slide down an inclined platform. It deploys a clean wooden board (60 cm by 40 cm) positioned horizontally. Mice were placed on the board with head facing up the increasing incline. The board then swings to increase the degree of inclination the rat experiences until slipping down the board feet first. The degree of the angle at which the rat relinquishes their grip/stance on the board (slips down) constitute the test results; e. the forelimb whole body suspension test—The test measures grip strength by duration of suspension by forepaws. The rat is suspended on a metal bar (diameter 5 mm) which it tightly holds onto by its forelimbs. The time (seconds) during which each rat could sustain its body weight while holding onto the bar is recorded. The mice drop from the bar onto soft material with no harm. The test was repeated three times and a mean result per rat was used as the score. Cumulatively these sensory motor/neurological findings indicate acute tolerability of 250 mg/kg HU-MCA-13 iv injection in Male C57BL/6 mice.

Data set [2] concerns male C57BL/6 mice. The experiment in a line: Acute tolerance in mice, single iv dose. It is filed as in vivo. On the procedure: as §1
Data set [3] concerns the target Muscarinic acetylcholine Receptor M1 (CHRM1) (Homo sapiens, UniProt P11229). The experiment in a line: cell-based. The conditions noted are these: 10 μM HU-MCA-13, read-out: Maximal Response.
The target of data set [4] is Cannabinoid Receptor 1 (CNR1) (Homo sapiens, UniProt P21554). As to the kind of experiment: SAFETYscan CNR1 cAMP. To be noted: 10 μM HU-MCA-13; for Emax: read-out: Maximal Response. The format is cell-based.
Sequence of Cannabinoid Receptor 1 (CNR1) (P21554 whole entry): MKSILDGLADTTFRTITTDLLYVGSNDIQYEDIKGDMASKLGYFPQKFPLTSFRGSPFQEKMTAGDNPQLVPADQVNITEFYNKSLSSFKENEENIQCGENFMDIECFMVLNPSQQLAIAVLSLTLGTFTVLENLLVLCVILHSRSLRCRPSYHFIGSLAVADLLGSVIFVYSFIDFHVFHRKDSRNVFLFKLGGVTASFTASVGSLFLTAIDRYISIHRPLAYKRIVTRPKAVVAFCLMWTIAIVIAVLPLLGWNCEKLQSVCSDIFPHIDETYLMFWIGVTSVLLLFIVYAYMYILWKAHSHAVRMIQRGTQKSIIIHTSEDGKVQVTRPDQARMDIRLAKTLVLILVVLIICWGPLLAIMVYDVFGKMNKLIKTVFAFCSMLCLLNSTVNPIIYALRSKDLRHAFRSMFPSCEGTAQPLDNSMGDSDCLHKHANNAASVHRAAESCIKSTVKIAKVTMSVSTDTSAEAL
In data set [5] the target is Dopamine Receptor D1 (DRD1) (Homo sapiens, UniProt P21728). The experiment in a line: SAFETYscan DRD1 cAMP. It is filed as cell-based. The conditions noted are these: 10 μM HU-MCA-13.
Sequence of Dopamine Receptor D1 (DRD1) (P21728 whole entry): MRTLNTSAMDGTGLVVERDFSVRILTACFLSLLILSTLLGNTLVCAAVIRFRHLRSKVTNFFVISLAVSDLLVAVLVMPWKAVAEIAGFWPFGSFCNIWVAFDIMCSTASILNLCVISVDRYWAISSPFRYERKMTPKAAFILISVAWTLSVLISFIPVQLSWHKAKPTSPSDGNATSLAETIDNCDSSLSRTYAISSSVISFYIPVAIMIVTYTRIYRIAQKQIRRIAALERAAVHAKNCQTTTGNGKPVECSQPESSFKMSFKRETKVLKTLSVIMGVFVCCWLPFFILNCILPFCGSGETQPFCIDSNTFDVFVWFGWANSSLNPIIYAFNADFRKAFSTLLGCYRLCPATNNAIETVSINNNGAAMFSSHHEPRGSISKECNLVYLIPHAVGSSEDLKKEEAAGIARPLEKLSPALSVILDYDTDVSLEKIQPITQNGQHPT
For data set [6], the target named is 5-Hydroxytryptamine (Serotonin) Receptor 1A (HTR1A) (Homo sapiens, UniProt P08908). The experiment in a line: SAFETYscan HTR1A cAMP. It is filed as cell-based. To be noted: 10 μM HU-MCA-13.
Sequence of 5-Hydroxytryptamine (Serotonin) Receptor 1A (HTR1A) (P08908 whole entry): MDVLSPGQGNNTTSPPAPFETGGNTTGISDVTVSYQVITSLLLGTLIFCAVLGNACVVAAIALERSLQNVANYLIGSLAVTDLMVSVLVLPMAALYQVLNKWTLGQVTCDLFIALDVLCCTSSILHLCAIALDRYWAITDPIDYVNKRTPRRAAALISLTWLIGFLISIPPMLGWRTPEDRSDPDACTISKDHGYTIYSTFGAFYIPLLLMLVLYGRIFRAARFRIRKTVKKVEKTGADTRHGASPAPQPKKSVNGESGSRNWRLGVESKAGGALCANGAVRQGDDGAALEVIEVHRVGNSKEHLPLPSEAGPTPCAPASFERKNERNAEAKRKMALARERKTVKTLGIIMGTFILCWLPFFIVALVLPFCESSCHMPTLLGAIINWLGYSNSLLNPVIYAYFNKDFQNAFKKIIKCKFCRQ
Data set [7] deals with T1, Kv7.1/KCNE Potassium voltage-gated channel (KvLQT1/minK) (Homo sapiens, UniProt P51787).
T1 construct: DiscoverX (SAFETYscan contract panel)
The experiment in a line: SAFETYscan KvLQT1/minK Ion channel. It is filed as cell-based. The conditions noted are these: 10 μM HU-MCA-13, read-out: Maximal Response.

Data set [8] concerns the target T2, Nicotinic acetylcholine Receptor-alpha-4 beta-2 (nAChR (a4/b2)) (Homo sapiens, UniProt P17787+P43681).
T2 construct: DiscoverX (SAFETYscan contract panel)
As to the kind of experiment: cell-based. It is filed as cell-based. To be noted: 10 μM HU-MCA-13, read-out: Maximal Response.

In data set [9] the target is T3, Cyclooxygenase 2 (COX 2) (Homo sapiens, UniProt P35354).
T3 construct: DiscoverX (SAFETYscan contract panel)
T3 sequence (P35354 18-604): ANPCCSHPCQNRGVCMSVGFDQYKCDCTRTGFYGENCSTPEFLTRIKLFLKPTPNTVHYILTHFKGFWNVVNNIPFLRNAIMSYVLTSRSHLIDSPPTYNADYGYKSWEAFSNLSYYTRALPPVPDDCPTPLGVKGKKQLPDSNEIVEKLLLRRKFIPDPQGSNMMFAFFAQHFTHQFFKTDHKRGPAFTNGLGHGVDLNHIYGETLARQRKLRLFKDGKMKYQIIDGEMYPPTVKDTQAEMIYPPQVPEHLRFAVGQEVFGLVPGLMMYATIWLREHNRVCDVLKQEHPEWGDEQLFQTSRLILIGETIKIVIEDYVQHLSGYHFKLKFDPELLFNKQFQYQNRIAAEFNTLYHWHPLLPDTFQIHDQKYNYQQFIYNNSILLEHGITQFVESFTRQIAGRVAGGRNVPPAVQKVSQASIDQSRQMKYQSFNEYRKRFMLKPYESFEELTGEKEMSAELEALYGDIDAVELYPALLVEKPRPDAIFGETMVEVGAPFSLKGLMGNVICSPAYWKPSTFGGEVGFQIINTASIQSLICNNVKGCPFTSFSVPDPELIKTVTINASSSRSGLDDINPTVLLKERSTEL
The experiment in a line: SAFETYscan COX 2 Enzymatic. It is filed as biochemical. The conditions noted are these: Inhibitor mode; 10 μM HU-MCA-13; read-out: Maximal Response.

For data set [10], the target named is T4, Monoamine oxidase type A (MAOA) (Homo sapiens, UniProt P21397).
T4 construct: DiscoverX (SAFETYscan contract panel)
T4 sequence (P21397 whole entry): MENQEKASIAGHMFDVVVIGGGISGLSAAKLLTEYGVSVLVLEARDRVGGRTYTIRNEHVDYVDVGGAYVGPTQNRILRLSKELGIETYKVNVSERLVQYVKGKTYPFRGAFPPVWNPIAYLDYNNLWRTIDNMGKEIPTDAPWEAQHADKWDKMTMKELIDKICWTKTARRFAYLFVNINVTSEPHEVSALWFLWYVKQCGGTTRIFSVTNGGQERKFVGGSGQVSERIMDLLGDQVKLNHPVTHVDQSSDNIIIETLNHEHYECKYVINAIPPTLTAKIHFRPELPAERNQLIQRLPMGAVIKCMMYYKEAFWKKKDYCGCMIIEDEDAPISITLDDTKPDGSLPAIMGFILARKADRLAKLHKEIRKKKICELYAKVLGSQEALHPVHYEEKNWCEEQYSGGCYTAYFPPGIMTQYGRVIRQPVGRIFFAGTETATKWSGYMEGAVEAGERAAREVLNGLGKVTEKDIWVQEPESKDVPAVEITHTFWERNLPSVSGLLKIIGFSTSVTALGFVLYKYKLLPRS
As to the kind of experiment: SAFETYscan MAOA Enzymatic. It is filed as biochemical. To be noted: Inhibitor mode; 10 μM HU-MCA-13; read-out: Maximal Response.

Data set [11] has as its target T5, Serotonin transporter (SERT) (Homo sapiens, UniProt P31645).
T5 construct: DiscoverX (SAFETYscan contract panel)
As to the kind of experiment: cell-based. To be noted: Blocker mode; 10 μM HU-MCA-13; read-out: Maximal Response.

Where [12] appears, read: 250 mg/kg iv, same for 1% DMSO group.
Where [13] appears, read: read-out: Maximal Response, Agonist mode.
Setting [14] is: read-out: Maximal Response, Antagonist mode.

Data on one compound can be found in US20200239398A1, “METHYLENE-CYCLOALKYLACETATE DERIVATIVES AND THEIR USE IN TREATMENT OF NEUROTROPIC CONDITIONS” (Yissum Research Development Company of The Hebrew …, priority 2018, published 2020).

Where two headings read alike, the source gives them in different places.

Sequence of Muscarinic acetylcholine Receptor M1 (CHRM1) (P11229 whole entry): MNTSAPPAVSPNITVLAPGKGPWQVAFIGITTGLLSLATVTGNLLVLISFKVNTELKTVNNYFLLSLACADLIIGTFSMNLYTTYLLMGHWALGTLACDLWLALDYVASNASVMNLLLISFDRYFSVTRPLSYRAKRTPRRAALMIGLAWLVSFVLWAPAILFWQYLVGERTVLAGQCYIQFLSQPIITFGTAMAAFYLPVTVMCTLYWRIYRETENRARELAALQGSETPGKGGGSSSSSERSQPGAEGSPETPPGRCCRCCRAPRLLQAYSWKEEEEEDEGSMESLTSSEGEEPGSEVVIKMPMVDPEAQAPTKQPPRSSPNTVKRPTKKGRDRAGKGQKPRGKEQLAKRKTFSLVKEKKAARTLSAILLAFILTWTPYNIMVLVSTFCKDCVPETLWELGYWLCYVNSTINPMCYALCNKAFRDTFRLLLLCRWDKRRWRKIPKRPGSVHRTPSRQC
T2 sequence (P43681 29-627 limits assumed): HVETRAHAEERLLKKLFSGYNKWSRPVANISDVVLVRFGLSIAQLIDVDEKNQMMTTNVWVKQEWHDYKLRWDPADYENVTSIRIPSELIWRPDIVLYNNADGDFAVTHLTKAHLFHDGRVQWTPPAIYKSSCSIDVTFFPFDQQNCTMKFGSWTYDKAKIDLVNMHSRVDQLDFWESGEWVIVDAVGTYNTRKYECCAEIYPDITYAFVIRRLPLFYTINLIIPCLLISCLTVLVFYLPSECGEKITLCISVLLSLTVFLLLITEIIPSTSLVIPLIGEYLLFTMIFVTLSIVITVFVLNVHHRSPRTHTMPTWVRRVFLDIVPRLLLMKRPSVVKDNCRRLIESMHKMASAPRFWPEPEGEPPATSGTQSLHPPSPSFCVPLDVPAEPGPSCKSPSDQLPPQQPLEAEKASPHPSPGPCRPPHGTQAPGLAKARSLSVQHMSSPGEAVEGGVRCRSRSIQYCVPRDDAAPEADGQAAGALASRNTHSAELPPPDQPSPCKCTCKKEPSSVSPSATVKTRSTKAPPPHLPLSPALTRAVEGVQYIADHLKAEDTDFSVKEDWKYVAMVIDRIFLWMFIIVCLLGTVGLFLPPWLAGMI
T2 sequence (P17787 26-502): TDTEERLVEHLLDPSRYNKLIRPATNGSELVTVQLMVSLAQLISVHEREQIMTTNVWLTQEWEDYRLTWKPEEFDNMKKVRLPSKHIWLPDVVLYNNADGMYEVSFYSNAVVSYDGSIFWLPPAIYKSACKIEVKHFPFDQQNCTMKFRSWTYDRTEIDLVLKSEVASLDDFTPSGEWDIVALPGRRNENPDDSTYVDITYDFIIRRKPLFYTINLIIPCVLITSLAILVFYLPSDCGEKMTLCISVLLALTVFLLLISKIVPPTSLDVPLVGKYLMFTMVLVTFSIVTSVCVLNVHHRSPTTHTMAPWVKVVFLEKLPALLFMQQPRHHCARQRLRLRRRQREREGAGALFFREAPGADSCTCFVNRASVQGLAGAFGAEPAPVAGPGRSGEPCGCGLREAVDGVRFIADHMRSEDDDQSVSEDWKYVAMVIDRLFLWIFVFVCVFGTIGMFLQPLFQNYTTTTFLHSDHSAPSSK
T5 sequence (P31645 whole entry): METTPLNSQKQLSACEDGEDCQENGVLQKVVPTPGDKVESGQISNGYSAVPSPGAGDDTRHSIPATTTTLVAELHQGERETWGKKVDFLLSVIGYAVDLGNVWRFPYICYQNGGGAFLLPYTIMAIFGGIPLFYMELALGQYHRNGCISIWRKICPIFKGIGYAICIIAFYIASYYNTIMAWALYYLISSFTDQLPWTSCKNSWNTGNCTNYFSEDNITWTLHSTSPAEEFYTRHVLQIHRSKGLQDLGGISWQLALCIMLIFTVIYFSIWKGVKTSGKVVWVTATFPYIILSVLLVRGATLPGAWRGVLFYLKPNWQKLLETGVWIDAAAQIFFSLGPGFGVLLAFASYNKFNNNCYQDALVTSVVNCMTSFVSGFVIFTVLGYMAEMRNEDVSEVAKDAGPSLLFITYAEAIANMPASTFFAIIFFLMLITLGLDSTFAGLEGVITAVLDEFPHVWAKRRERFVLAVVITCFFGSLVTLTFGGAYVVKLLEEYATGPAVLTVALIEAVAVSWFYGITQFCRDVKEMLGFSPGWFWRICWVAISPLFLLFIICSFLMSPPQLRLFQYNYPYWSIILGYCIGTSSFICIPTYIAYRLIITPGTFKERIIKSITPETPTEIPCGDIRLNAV

Consider `C=CCC1CCC[C@@H](CCC(=O)O)C1=C` (stereo partly drawn) [Compound 13], for which the LD50 at 30 days in [1] is more than 2000 mg/kg. Besides, the “neurotoxicity signs (paralysis, motor activity, behavior)” value in [2] (250 mg/kg iv) is “No paralysis, altered motor activity, or irregular behavior was observed”. Further, the mortality entry in data set [2] (250 mg/kg iv single dose, up to 30 days) was “No mortality”. Also, in data set [2] (250 mg/kg iv vs 1% DMSO), the “autonomic symptoms (salivation, urinary delivery, pupillary constriction, heart rate, blood pressure, hair contraction)” value is given as “no differences were observed”. In data set [2] (250 mg/kg iv vs 1% DMSO treated group), the “changes on body weight” value is “No significant changes”. In addition, in data set [2] (setting [12]), the “body weight at end” value was 27 gram. Moreover, the “body weight at start” value in [2] (setting [12]) is 21 gram. In addition, the “cutaneous hematomas around the injection site or at distant locations” value in data set [2] (within 24 hours after injection, 250 mg/kg iv) is given as “have not been observed”. Moreover, the Emax in data set [3] (Agonist mode) stood at 0%; in [3] (Antagonist mode) it was 7.43%; in [4] (Agonist mode), 50.1%; in [4] (Antagonist mode), 0.57%; in [5] (setting [13]), 0%; in data set [5] (setting [14]), 14.3%. The Emax in data set [6] (setting [13]) was determined as 7.66%; in data set [6] (setting [14]), 0%; in data set [7] (Blocker mode), 0.55%; in data set [7] (Opener mode) it was 0%; in data set [8] (Blocker mode), 5.95%; in [8] (Opener mode) it was 0%. For the same compound, the Emax in data set [9] was 7.99%; in data set [10], 1.86%; in data set [11], 15.4%. For the same compound, the “Maximal Response” value in data set [4] (Agonist mode) stood at 50.22%.

As a reminder, the LD50 is the dose expected to kill half of the subjects tested.
